US20210395262A1, “INHIBITORS OF HUMAN IMMUNODEFICIENCY VIRUS REPLICATION” (ViiV HEALTHCARE UK (NO.5) LIMITED, priority 2018, published 2021)
Read-outs that look alike come from different tables or passages of the source.

Experiments:
recombinant NL4-3 virus = assay: HIV cell culture assay (antiviral activity, luciferase readout in MT-2 cells); format: cell-based; settings: Human immunodeficiency virus 1, NL43, MT2
How it was run: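 MT-2 cells infected for 4-5 days with NL4-3 reference virus carrying Renilla luciferase in place of part of nef, in presence of serial compound dilutions. Luciferase activity read with live-cell substrate. EC50 derived from median effect equation, slope parameter m.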

[1] = Compound cytotoxicity, XTT-based colorimetric assay; format: cell-based; settings: human
How it was run: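 Run under the antiviral-assay protocol but without virus. Viability was read on day 4 and CC50 values were derived from the readout.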

[2] = uninfected MT2 cells, day 4, XTT, read-out: CC50

| SMILES | EC50 (recombinant NL4-3 virus) | CC50 at 4 days [1, 2] | CC50 at 4 days [1] |
| --- | --- | --- | --- |
| Cn1nc(NS(C)(=O)=O)c2c(Cl)ccc(-n3c([C@H](Cc4cc(F)cc(F)c4)NC(=O)Cn4nc(C(F)F)c5c4C(F)(F)[C@@H]4C[C@H]54)nc4cc(NCc5ccccc5)ccc4c3=O)c21 (atropisomer, axis not shown; (P)) [Example 20, N—((S)-1-(7-(benzylamino)-(3P)-3-(4-chloro-1-methyl-3-(methylsulfonamido)-1H-indazol-7-yl)-4-oxo-3,4-dihydroquinazolin-2-yl)-2-(3,5-difluorophenyl)ethyl)-2-((3bS,4aR)-3-(difluoromethyl)-5,5-difluoro-3b,4,4a,5-tetrahydro-1H-cyclopropa[3,4]cyclopenta[1,2-c]pyrazol-1-yl)acetamide] | 0.38 nM | > 1000 nM | – |
| O=C(Cn1nc(C(F)F)cc1C(F)F)N[C@@H](Cc1cc(F)cc(F)c1)c1nc2cc(N3CCOCC3)ccc2c(=O)n1-c1ccc(Cl)c2c(NS(=O)(=O)C3CC3)nn(CC(F)F)c12 (atropisomer, axis not shown; (P)) [Example 36, (S)-2-(3,5-bis(difluoromethyl)-1H-pyrazol-1-yl)-N-(1-((3P)-3-(4-chloro-3-(cyclopropanesulfonamido)-1-(2,2-difluoroethyl)-1H-indazol-7-yl)-7-morpholino-4-oxo-3,4-dihydroquinazolin-2-yl)-2-(3,5-difluorophenyl)ethyl)acetamide] | 2.31 nM | > 1000 nM | – |
| Cn1nc(NS(C)(=O)=O)c2c(Cl)ccc(-n3c([C@H](Cc4cc(F)cc(F)c4)NC(=O)Cn4nc(C(F)F)c5c4C(F)(F)[C@@H]4C[C@H]54)nc4cc(N5CCCC5)ccc4c3=O)c21 (atropisomer, axis not shown; (P)) [Example 19, N—((S)-1-((3P)-3-(4-chloro-1-methyl-3-(methylsulfonamido)-1H-indazol-7-yl)-4-oxo-7-(pyrrolidin-1-yl)-3,4-dihydroquinazolin-2-yl)-2-(3,5-difluorophenyl)ethyl)-2-((3bS,4aR)-3-(difluoromethyl)-5,5-difluoro-3b,4,4a,5-tetrahydro-1H-cyclopropa[3,4]cyclopenta[1,2-c]pyrazol-1-yl)acetamide] | 0.222 nM | > 1000 nM | – |
| Cn1nc(NS(C)(=O)=O)c2c(Cl)ccc(-n3c([C@H](Cc4cc(F)cc(F)c4)NC(=O)Cn4nc(C(F)F)c5c4C(F)(F)[C@@H]4C[C@H]54)nc4cc(N5CC(S(C)(=O)=O)C5)ccc4c3=O)c21 (atropisomer, axis not shown; (P)) [Example 26, N—((S)-1-((3P)-3-(4-chloro-1-methyl-3-(methylsulfonamido)-1H-indazol-7-yl)-7-(3-(methylsulfonyl)azetidin-1-yl)-4-oxo-3,4-dihydroquinazolin-2-yl)-2-(3,5-difluorophenyl)ethyl)-2-((3bS,4aR)-3-(difluoromethyl)-5,5-difluoro-3b,4,4a,5-tetrahydro-1H-cyclopropa[3,4]cyclopenta[1,2-c]pyrazol-1-yl)acetamide] | 0.295 nM | > 500 nM | – |
| Cn1nc(NS(C)(=O)=O)c2c(Cl)ccc(-n3c([C@H](Cc4cc(F)cc(F)c4)NC(=O)Cn4nc(C(F)F)c5c4C(F)(F)[C@@H]4C[C@H]54)nc4cc(N5CC6CCC(C5)O6)ccc4c3=O)c21 [Example 27, N—((S)-1-(7-((1R,5S)-8-oxa-3-azabicyclo[3.2.1]octan-3-yl)-(3P)-3-(4-chloro-1-methyl-3-(methylsulfonamido)-1H-indazol-7-yl)-4-oxo-3,4-dihydroquinazolin-2-yl)-2-(3,5-difluorophenyl)ethyl)-2-((3bS,4aR)-3-(difluoromethyl)-5,5-difluoro-3b,4,4a,5-tetrahydro-1H-cyclopropa[3,4]cyclopenta[1,2-c]pyrazol-1-yl)acetamide] | 0.051 nM | > 500 nM | – |
| O=C(Cn1nc(C(F)F)cc1C1CC1)N[C@@H](Cc1cc(F)cc(F)c1)c1nc2cc(N3CCCCC3)ccc2c(=O)n1-c1ccc(Cl)c2c(NS(=O)(=O)C3CC3)nn(CC(F)F)c12 (atropisomer, axis not shown; (P)) [Example 39, (S)—N-(1-((3P)-3-(4-chloro-3-(cyclopropanesulfonamido)-1-(2,2-difluoroethyl)-1H-indazol-7-yl)-4-oxo-7-(piperidin-1-yl)-3,4-dihydroquinazolin-2-yl)-2-(3,5-difluorophenyl)ethyl)-2-(5-cyclopropyl-3-(difluoromethyl)-1H-pyrazol-1-yl)acetamide] | 3.72 nM | > 1000 nM | – |
| C[C@@H]1CN(c2ccc3c(=O)n(-c4ccc(Cl)c5c(NS(C)(=O)=O)nn(CC(F)(F)F)c45)c([C@H](Cc4cc(F)cc(F)c4)NC(=O)Cn4nc(C(F)F)cc4C4CC4)nc3c2)C[C@H](C)O1 (atropisomer, axis not shown; (P)) [Example 59, N—((S)-1-((3P)-3-(4-chloro-3-(methylsulfonamido)-1-(2,2,2-trifluoroethyl)-1H-indazol-7-yl)-7-((2S,6R)-2,6-dimethylmorpholino)-4-oxo-3,4-dihydroquinazolin-2-yl)-2-(3,5-difluorophenyl)ethyl)-2-(5-cyclopropyl-3-(difluoromethyl)-1H-pyrazol-1-yl)acetamide] | 0.42 nM | > 500 nM | – |
| C[C@@H]1CN(c2ccc3c(=O)n(-c4ccc(Cl)c5c(NS(C)(=O)=O)nn(CC(F)F)c45)c([C@H](Cc4cc(F)cc(F)c4)NC(=O)Cn4nc(C(F)F)cc4C4CC4)nc3c2)C[C@H](C)O1 [Example 46, N—((S)-1-((3P)-3-(4-chloro-1-(2,2-difluoroethyl)-3-(methylsulfonamido)-1H-indazol-7-yl)-7-((2S,6R)-2,6-dimethylmorpholino)-4-oxo-3,4-dihydroquinazolin-2-yl)-2-(3,5-difluorophenyl)ethyl)-2-(5-cyclopropyl-3-(difluoromethyl)-1H-pyrazol-1-yl)acetamide] | 0.58 nM | > 500 nM | – |
| C[C@@H]1CN(c2ccc3c(=O)n(-c4ccc(Cl)c5c(NS(C)(=O)=O)nn(CC(F)(F)F)c45)c([C@H](Cc4cc(F)cc(F)c4)NC(=O)Cn4nc(C(F)(F)F)c5c4C(F)(F)[C@@H]4C[C@H]54)nc3c2)C[C@H](C)O1 (atropisomer, axis not shown; (P)) [Example 61, N—((S)-1-((3P)-3-(4-chloro-3-(methylsulfonamido)-1-(2,2,2-trifluoroethyl)-1H-indazol-7-yl)-7-((2S,6R)-2,6-dimethylmorpholino)-4-oxo-3,4-dihydroquinazolin-2-yl)-2-(3,5-difluorophenyl)ethyl)-2-((3bS,4aR)-5,5-difluoro-3-(trifluoromethyl)-3b,4,4a,5-tetrahydro-1H-cyclopropa[3,4]cyclopenta[1,2-c]pyrazol-1-yl)acetamide] | 0.084 nM | > 500 nM | – |
| CC(C(=O)N[C@@H](Cc1cc(F)cc(F)c1)c1nc2cc(N3C[C@@H](C)O[C@@H](C)C3)ccc2c(=O)n1-c1ccc(Cl)c2c(NS(C)(=O)=O)nn(CC(F)F)c12)n1nc(C(F)(F)F)cc1C1CC1 (stereo partly shown) [Example 55] | 4.3 nM | > 500 nM | – |
| Cn1nc(NS(C)(=O)=O)c2c(Cl)ccc(-n3c([C@H](Cc4cc(F)cc(F)c4)NC(=O)Cn4nc(C(F)F)c5c4C(F)(F)[C@@H]4C[C@H]54)nc4cc(N5C6CCC5COC6)ccc4c3=O)c21 [Example 64, N—((S)-1-(7-((1R,5S)-3-oxa-8-azabicyclo[3.2.1]octan-8-yl)-(3P)-3-(4-chloro-1-methyl-3-(methylsulfonamido)-1H-indazol-7-yl)-4-oxo-3,4-dihydroquinazolin-2-yl)-2-(3,5-difluorophenyl)ethyl)-2-((3bS,4aR)-3-(difluoromethyl)-5,5-difluoro-3b,4,4a,5-tetrahydro-1H-cyclopropa[3,4]cyclopenta[1,2-c]pyrazol-1-yl)acetamide] | 0.037 nM | – | > 500 nM |
| Cn1nc(NS(C)(=O)=O)c2c(Cl)ccc(-n3c([C@H](Cc4cc(F)cc(F)c4)NC(=O)Cn4nc(C(F)F)c5c4C(F)(F)[C@@H]4C[C@H]54)nc4cc(N5CCS(=O)(=O)CC5)ccc4c3=O)c21 (atropisomer, axis not shown; (P)) [Example 13, N—((S)-1-((3P)-3-(4-chloro-1-methyl-3-(methylsulfonamido)-1H-indazol-7-yl)-7-(1,1-dioxidothiomorpholino)-4-oxo-3,4-dihydroquinazolin-2-yl)-2-(3,5-difluorophenyl)ethyl)-2-((3bS,4aR)-3-(difluoromethyl)-5,5-difluoro-3b,4,4a,5-tetrahydro-1H-cyclopropa[3,4]cyclopenta[1,2-c]pyrazol-1-yl)acetamide] | 0.468 nM | > 10000 nM | – |
| Cn1nc(NS(C)(=O)=O)c2c(Cl)ccc(-n3c([C@H](Cc4cc(F)cc(F)c4)NC(=O)Cn4nc(C(F)F)c5c4C(F)(F)[C@@H]4C[C@H]54)nc4cc(N5CCCCCC5)ccc4c3=O)c21 (atropisomer, axis not shown; (P)) [Example 2, N—((S)-1-(7-(azepan-1-yl)-(3P)-3-(4-chloro-1-methyl-3-(methylsulfonamido)-1H-indazol-7-yl)-4-oxo-3,4-dihydroquinazolin-2-yl)-2-(3,5-difluorophenyl)ethyl)-2-((3bS,4aR)-3-(difluoromethyl)-5,5-difluoro-3b,4,4a,5-tetrahydro-1H-cyclopropa[3,4]cyclopenta[1,2-c]pyrazol-1-yl)acetamide] | 0.243 nM | > 500 nM | – |
| C[C@@H]1CN(c2ccc3c(=O)n(-c4ccc(Cl)c5c(NS(C)(=O)=O)nn(CC(F)F)c45)c([C@H](Cc4cc(F)cc(F)c4)NC(=O)Cn4ccc(C5CC5)n4)nc3c2)C[C@H](C)O1 (atropisomer, axis not shown; (P)) [Example 48, N—((S)-1-((3P)-3-(4-chloro-1-(2,2-difluoroethyl)-3-(methylsulfonamido)-1H-indazol-7-yl)-7-((2S,6R)-2,6-dimethylmorpholino)-4-oxo-3,4-dihydroquinazolin-2-yl)-2-(3,5-difluorophenyl)ethyl)-2-(3-cyclopropyl-1H-pyrazol-1-yl)acetamide] | 0.44 nM | > 500 nM | – |
